Measured values reported in PubChem BioAssay (NCI).
Where “and” joins values, the source holds several entries; their conditions need not be identical. Equal entries are not always repeated.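 These data come from cells grown in 96-well plates and exposed to compound for 48 hours at five concentrations. Abbreviation: GI50, concentration required for 50% inhibition of growth. TGI is the concentration that stops growth completely.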

What was measured:
Test in all cases: NCI tumour cell line growth inhibition, 48 h
786-0 renal = system: 786-0 renal
COLO 205 colon = system: COLO 205 colon
HCT-15 colon = system: HCT-15 colon
IGROV1 ovarian = system: IGROV1 ovarian
NCI-H522 lung = system: NCI-H522 lung
SK-MEL-2 melanoma = system: SK-MEL-2 melanoma
SK-OV-3 ovarian = system: SK-OV-3 ovarian
SN12C renal = system: SN12C renal
HOP-62 NSCLC = system: HOP-62 NSCLC
SF-539 CNS = system: SF-539 CNS

SMILES	TGI (786-0 renal)	TGI (COLO 205 colon)	TGI (HCT-15 colon)	TGI (IGROV1 ovarian)	TGI (NCI-H522 lung)	TGI (SK-MEL-2 melanoma)	TGI (SK-OV-3 ovarian)	TGI (SN12C renal)	TGI (HOP-62 NSCLC)	TGI (SF-539 CNS)	GI50 (786-0 renal)	GI50 (COLO 205 colon)	GI50 (HCT-15 colon)	GI50 (HOP-62 NSCLC)	GI50 (IGROV1 ovarian)	GI50 (NCI-H522 lung)	GI50 (SF-539 CNS)	GI50 (SK-MEL-2 melanoma)	GI50 (SK-OV-3 ovarian) [nM]	GI50 (SN12C renal)
CC1(C)NC(=O)N(CCCCCCN2C(=O)NC(C)(C)C2=O)C1=O	> 100 µM	> 100 µM	> 100 µM	> 100 µM	> 100 µM	> 100 µM	> 100 µM	> 100 µM	–	–	–	–	–	–	–	–	–	–	–	–
OCC1OC2c3ccccc3COC2C1OCc1ccccc1 (centres undefined)	> 100 µM	> 100 µM	> 100 µM	> 100 µM	> 100 µM	> 100 µM	> 100 µM	> 100 µM	–	–	–	–	–	–	–	–	–	–	–	–
O=C(Cc1ccccc1[N+](=O)[O-])C(CO)c1ccccc1[N+](=O)[O-] (centres undefined)	> 100 µM	> 100 µM	> 100 µM	> 100 µM	70.5 µM	> 100 µM	> 100 µM	> 100 µM	> 100 µM	> 100 µM	–	–	–	–	–	–	–	–	–	–
NC(=O)c1cccc2c(N[C@H](CN3CCC3)c3ccc(Cl)c(C(F)(F)F)c3)ncnc12	1.76 µM	2.66 µM	10.7 µM	2.63 µM	20.3 µM	9.74 µM	4.3 µM	13.9 µM	14.5 µM	1.71 µM	0.0921 µM	837 nM	0.947 µM	0.964 µM	0.0989 µM	5100 nM	154 nM	1960 nM	493	2.11 µM
N#CCCN(CCC#N)c1ccc(/C=C(/NC(=O)c2cc([N+](=O)[O-])ccc2Cl)C(=O)NN)cc1	> 100 µM	> 100 µM	> 100 µM	> 100 µM	> 100 µM	> 100 µM	> 100 µM	> 100 µM	> 100 µM	> 100 µM	–	–	–	–	–	–	–	–	–	–
N#Cc1c(NCc2ccccc2)nc(NCc2ccccc2)c(C#N)c1-c1ccc(Cl)cc1	> 100 µM	> 100 µM	> 100 µM	> 100 µM	> 100 µM	> 50 µM and 30.4 µM	> 100 µM	> 100 µM	> 50 µM and 62.7 µM	> 100 µM	> 50 µM and 41.5 µM	> 50000 nM and 76000 nM	> 100 µM	> 50 µM and 22.3 µM	> 50 µM and 37.1 µM	31700 nM	> 50000 nM and 29000 nM	–	> 100000	> 50 µM and 36.2 µM
Cc1ccc(F)c(NC(=O)Nc2ccc(-c3cccc4[nH]nc(N)c34)cc2)c1	18 µM and > 10 µM	4.32 µM and 4.9 µM	11.2 µM and > 10 µM	15.8 µM and > 10 µM	3.79 µM and 5.28 µM	5.89 µM and 9.2 µM	23.5 µM and > 10 µM	13 µM and > 10 µM	16.2 µM and > 10 µM	6.67 µM and > 10 µM	3.58 µM and 4.22 µM	2210 nM and 2270 nM	3.21 µM and 3.11 µM	4.07 µM and 3.12 µM	4 µM and 3.13 µM	1870 nM and 2190 nM	1610 nM and 1520 nM	2670 nM and 2870 nM	10500	3.16 µM and 3.54 µM
CC1CCCC(C(=O)CC2CC(=O)NC(=O)C2)C1=O (centres undefined)	> 100 µM	> 100 µM	> 100 µM	> 100 µM	–	> 100 µM	> 100 µM	> 100 µM	> 100 µM	> 100 µM	–	–	–	–	–	–	–	–	–	–
COC(=O)Cc1c([C@@]2(C)CCCC(C)(C)C2)ccc2c1C(=O)OC2	30.8 µM	26.4 µM	24.1 µM	47.5 µM	19.8 µM	–	32.3 µM	23 µM	–	31.6 µM	–	–	–	–	–	–	–	–	–	–
CCCCCCCCCCCCCC[n+]1ccccc1	2.42 µM	2.12 µM	13.2 µM	–	3.37 µM	2.19 µM	4.26 µM	2.5 µM	–	2.6 µM	1.04 µM	614 nM	1.9 µM	–	–	923 nM	1280 nM	592 nM	1450	0.926 µM
COc1ccc(/C=C/C(=O)c2c(O)ccc3c(C)c(C(=O)O)oc23)cc1	> 100 µM	> 100 µM	> 100 µM	> 100 µM	> 100 µM	–	> 100 µM	> 100 µM	> 100 µM	> 100 µM	90.3 µM	63400 nM	28.2 µM	89.9 µM	> 100 µM	33900 nM	35600 nM	–	> 100000	27.5 µM
N#CC1C[C@@H]2CC3(CCC2CN1C(=O)c1ccccc1)OCCO3 (some centres undefined)	> 100 µM	> 100 µM	> 100 µM	> 100 µM	–	> 21.6 µM	> 100 µM	> 100 µM	> 100 µM	> 100 µM	–	–	–	–	–	–	–	–	–	–
N/C=N/S(=O)(=O)c1ccc(NC(=O)COC(=O)c2cccc3c(=O)c4ccccc4[nH]c23)cc1	> 100 µM	> 100 µM	> 100 µM	> 100 µM	> 100 µM	–	> 100 µM	> 100 µM	> 100 µM	> 100 µM	–	–	–	–	–	–	–	–	–	–
O=[N+]([O-])c1cc(-c2nc(=S)[nH][nH]2)ccc1O	> 100 µM	35.9 µM	31 µM	> 100 µM	–	> 100 µM	> 100 µM	> 100 µM	> 100 µM	> 100 µM	–	–	–	–	–	–	–	–	–	–
COc1cc2c(c(O)c1Cl)C(=O)c1c(O)cc(C[C@H](C)O)cc1[C@H]2[C@H]1c2cc(C[C@H](C)O)cc(O)c2C(=O)c2c1cc(OC)c(Cl)c2O	75 µM and > 100 µM	–	75 µM and > 100 µM	39 µM and > 100 µM	–	–	–	75 µM and > 100 µM	–	–	3.21 µM and 30.3 µM	–	–	–	–	–	–	–	–	–
COc1ccc2c(c1)[n+]([O-])c(-c1cccc(Cl)c1)c(N)[n+]2[O-]	> 100 µM	30.3 µM	–	> 100 µM	30.4 µM	> 100 µM	> 100 µM	> 100 µM	> 100 µM	> 100 µM	–	–	–	–	–	–	–	–	–	–
O=C(NC(=Nc1ccccc1)SCSC(=Nc1ccccc1)NC(=O)c1ccco1)c1ccco1	> 100 µM	> 100 µM	> 100 µM	> 100 µM	91.5 µM	> 100 µM	–	> 100 µM	44.9 µM	59.1 µM	–	–	–	–	–	–	–	–	–	–
CN1CC=C(c2cc(NC(=O)Nc3ccc(Oc4ccnc(NC(=O)C5CC5)c4)c(F)c3)cc(C(F)(F)F)c2)CC1	0.908 µM	–	4.33 µM	1.34 µM	1.84 µM	2.26 µM	7.25 µM	1.27 µM	1.12 µM	1.86 µM	0.232 µM	–	1.08 µM	0.194 µM	0.244 µM	828 nM	888 nM	1130 nM	2740	0.159 µM
